Assay results reported in publication PMC13538172, “Zonisamide nanodiamonds for brain targeting: A comprehensive study utilising in silico, in vitro, in vivo, and molecular investigation for successful nose-to-brain delivery for epilepsy management” (Drug Delivery and Translational Research, 2025).

Assays:
Type in all cases: in vivo
[1] = system: neurofilament light polypeptide (NEFL); test: Serum NEFL by ELISA in TLE rats; details: compared to the TLE control rats; intranasal, 7 days
Procedure: (§1) Temporal lobe epilepsy (TLE) was induced in rats using the pilocarpine model according to the method of Arshad et al.. Prior to the experiment, rats were housed in plastic cages at October University for Modern Science and Arts under controlled environmental conditions (temperatures of 25°±3°C and 50% humidity) with free access to water and softened standard pellet chow. The rats were injected with pilocarpine (300 mg/kg; i.p.) to induce status epilepticus (SE). Atropine (1 mg/kg; i.p.) was injected 30 minutes before pilocarpine injection to antagonize the peripheral muscarinic activity. SE was defined using the modified Racine scale by observing seizure severity categorized as stages 4 and 5. […] The SE seizures were left to last for 3 hours to induce hippocampus damage, after which diazepam (10 mg/kg; i.p.) was injected to attenuate the seizures. Lubricant ophthalmic gel was applied with a cotton swab to each eye to prevent the corneas from drying out during the seizures. The rats were hydrated with sterile Ringer's lactate injections (1 mL, i.p.) for 3 days post-SE induction. […]
(§2) The serum levels of neuron-specific enolase (NSE), matrix metallopeptidase-9 (MMP-9), neurofilament light polypeptide (NEFL), and brain-derived neurotrophic factor (BDNF) were measured by ELISA technique using the following standard kits CAT no. […]

[2] = system: brain-derived neurotrophic factor (BDNF); test: Serum BDNF by ELISA in TLE rats; details: TLE control 22.1 ± 1.7, normal group 76.8 ± 6.1
Procedure: as §1, §2

brain hippocampus = test: Histopathological examination of the brain hippocampus in TLE rats; details: H&E, Fig. 12
Procedure: as §1, with “Arshad” left out, “induction. Animal welfare assessments were conducted multiple times per day for several days after the induction of SE.” for “induction.”

## NS(=O)(=O)Cc1noc2ccccc12 [ZNS, Zonisamide]
[1]
  decrease in serum level of NEFL: 44.6%
[2]
  serum level of BDNF: 47.45 ± 1.9 pg/mL
Brain hippocampus
  hippocampal histopathology, result in words: noticeable neuroprotective efficacy
